Experimental findings from a melting point compilation (Tetko et al.; mined from patent text by program, amines drawn as free bases though some values may be those of a salt) are described below.

For orientation: melting point means the temperature, or range, at which the solid turns liquid. As for `Cc1cc(C2=C(C=CC3CC(O)CC(=O)O3)C(C)(C)CC(N3C(=O)CCC3=O)C2)ccc1F` (centres undefined), the melting point was 71 to 77 °C. `CCOC(=O)C(CC)C(=O)Nc1ccc(Br)cc1C` (centres undefined) had a melting point of 98 to 100 °C. `Cc1c(Cl)cccc1S(=O)(=O)Nc1ccc2sccc2c1`: the melting point was in the range of 108 to 109 °C. `O=C(O)COc1cccc2c1CCc1sc(S(=O)(=O)C(c3ccc(Cl)cc3)c3ccc(Cl)cc3)nc1-2` came in with a melting point of 197 to 199 °C. `ON=c1ccccc2cnccc12` came in with a melting point of 164 to 167 °C. `CS(=O)(=O)c1ccc(-n2cc(C(F)(F)F)nc2-c2ccc(-c3ccco3)cc2)cc1` yielded a melting point of 82 to 84 °C. `CCC(=Cc1ccccc1)C(=O)c1ccc(OC)c(Cl)c1Cl` showed a melting point of 127 to 130 °C. The molecule `CC(C)N1c2ccccc2N(C(C)C)c2ccccc21` came in with a melting point of 80 to 81 °C.

On to `COc1cc2c(cc1OCc1ccccc1)CCN(Cc1cccc(Oc3ccccc3)c1)C2`, for which the melting point fell in the range of 111 to 112 °C. Regarding `Oc1nn(-c2ccc(Cl)c(Cl)c2)cc1-c1ccccc1`, the melting point is 244 to 245 °C. As to `Cc1nc(-c2nc(=O)c3ccccc3s2)cs1`, the melting point is 219 to 220 °C. With `CC(O)c1sc(S(N)(=O)=O)cc1S(C)(=O)=O` (centres undefined), the melting point fell in the range of 121 to 127 °C. `COC(=O)Cc1ccc(C(C)=O)s1` displayed a melting point of 43 to 44 °C. The molecule `O=[N+]([O-])C(=CC(O)C(=C1NCCN1Cc1ccc(Cl)nc1)[N+](=O)[O-])C1=NCCN1Cc1ccc(Cl)nc1` (centres undefined) had a melting point of 157 to 162 °C. Molecule `CCOC(=O)C1=C(C)NC(C)=C(C(=O)OCC)C1c1csc2cc([N+](=O)[O-])ccc12` registered a melting point of 191 to 194 °C. On to `CC(C)(O)/C=C\C(C)(C)O`, for which the melting point came out at 64 °C.

Molecule `CCCCCCCCCCCCn1sncc1=O` yielded a melting point of 68 to 70 °C. Under `CC(C)(C)OC(=O)NCc1cc(N=C(N)c2cccs2)ccc1N1CCN(C(=O)CCCCC2CCSS2)CC1` (centres undefined) stands 162 to 164 °C; under `CC(=O)NC[C@H]1CN(c2ccc(-c3ncon3)c(F)c2)C(=O)O1`, 197 to 199 °C.

`Cc1cc(O)n2nc(S(=O)(=O)Nc3ccccc3C(F)(F)F)nc2n1` registered a melting point of 245 to 247 °C. Molecule `CC1(C)CC(=O)c2cc3c(cc2O1)OCO3` returned a melting point of 61 to 62 °C. In the case of `CCS(=O)c1ccc(-c2coc3ccc(-c4nnc(C)o4)cc23)c(Cl)c1` (centres undefined) it was 151 to 152 °C; in that of `Cc1cccc(C(=O)Nc2c[nH]nc2C(=O)NCCOC(C)C)n1`, 150 to 151 °C; in that of `CC(=O)NCC1CC1c1ccc(F)c2nn(C)cc12` (centres undefined), 147 to 148 °C. Regarding `COc1ccc(S(=O)(=O)Nc2cccc(C)c2NC(=O)c2ccncc2)cc1`, the melting point lay in the range of 213 to 217 °C. In turn, `COC(=O)C1=C(NC(=O)Nc2cc(C(=O)OC(C)C)c(Cl)cc2F)CCS1` displayed a melting point of 161 to 163 °C. In the case of `COC(=O)c1c(Oc2ccc(Cl)cc2N)c2ccccc2n1Cc1ccccc1` it was 121 to 123 °C.

`Cc1ccc(C=CC(=O)NN2CC(=O)NC2=O)cc1Cl` had a melting point of 271 to 273 °C. Molecule `Cn1cc(C(=O)c2sc(NC(=O)c3ccncc3)nc2-c2ccco2)ccc1=O` displayed a melting point of 294 to 295 °C. In the case of `COc1ccccc1Sc1c(Cl)nc(C)nc1NS(=O)(=O)c1ccc(C(C)(C)C)cc1` it was 155 °C; in that of `COc1ccccc1N1CCN(CCCNC2=CC(=O)N(C)S(=O)(=O)N2C)CC1`, 137 to 139 °C; in that of `CCOc1cc2c(O)c(C)cnc2nc1C`, 238 to 242 °C. Regarding `CC1Cc2cc3c(cc2C(c2ccc([N+](=O)[O-])cc2)=NN1C1=NCCS1)OCO3` (centres undefined), the melting point was in the range of 185 to 187 °C. In the case of `O=C(CCl)Nc1ccc2c(c1NC(=O)c1ccccc1F)C(=O)c1ccccc1C2=O`, the melting point fell in the range of 245 to 246 °C.

For the molecule `CC(C)P1(=O)NCc2ccccc21` (centres undefined), the melting point lay in the range of 149 to 151 °C. The molecule `CCS(=O)c1cccnc1S(=O)(=O)NC(C)(C)C` (centres undefined) registered a melting point of 129 to 131 °C. `COC1=C(OC)C(=O)C2=C(CC(CCCCCCCCN3CCN(Cc4ccccc4)CC3)C2)C1=O` had a melting point of 80 to 81 °C. Turning to `O=C(O)C(OCc1ccc(-c2ccc(Cl)cc2)cc1)c1ccc(Cl)cc1` (centres undefined), the melting point is 120 to 122 °C. On to `CCOC(=O)Cc1c(C)ncnc1O`, for which the melting point lay within 148 to 149 °C. As for `COCCc1nc2c(N)nc3ccccc3c2n1CCCCCCCCNS(=O)(=O)c1ccccc1`, the melting point fell in the range of 146 to 149 °C. `O=C(O)c1cc(O)c(Cl)c(Cl)c1`: the melting point was found to be 211 °C.

`COc1ccc(-c2ccc(COCCc3cccc(NS(=O)(=O)C(F)(F)F)c3)cc2)cc1` gave a melting point of 96 to 98 °C. In the case of `COC(=O)c1ccc2c(c1)C(=O)N(c1ccccc1)C2=O` it was 200 to 207 °C. In the case of `Cc1ccc2c(n1)Oc1ccc(C(C)C(=O)OCCC(N)=O)cc1C2` (centres undefined) it was 143 to 145 °C; in that of `Nc1nc(-c2ccccc2)c(-c2ccc(=O)n(CC3CC3)n2)s1`, 204 to 206 °C; in that of `CCOC(=O)C(C)(C(C)=O)c1ccc([N+](=O)[O-])c(NC)c1C#N` (centres undefined), 87 to 91 °C. In the case of `CC(C)=CCCC(C)=CCOc1ccc(C(=O)Nc2cccnc2)cc1` it was 102 to 103 °C; in that of `COC(=O)C1C=CCn2c(=O)n(CSC(C)=O)c(=O)n21` (centres undefined), 110 to 111 °C; in that of `COc1cc(C)c(C=CC(C)=CC=CC(C)=CCO)c(C)c1C`, 128 to 130 °C. The molecule `CC(C)(Oc1ccc(CCN)cc1)C(=O)O` showed a melting point of 187 to 189 °C. `CON=Cc1ncn2c1[C@@H]1CCN1C(=O)c1c(Cl)cccc1-2` returned a melting point of 199 to 200 °C. In the case of `Cn1nc(N=Cc2ccccc2)nc1NCC(O)COc1cccc(CN2CCCCC2)c1` (centres undefined) it was 53 to 57 °C; in that of `Nc1nc(NS(=O)(=O)c2ccccc2[N+](=O)[O-])n[nH]1`, 255 to 256 °C; in that of `Cc1ccc(C(=O)c2c(-c3ccc(OCC(O)CNC(C)C)cc3)oc3ccccc23)cc1` (centres undefined), 65 to 75 °C. In turn, `CCOC(=O)CNC(=O)Nc1ccc(OC)cc1F` gave a melting point of 158 to 159 °C. `CCOC(=O)c1cc2cc(Oc3ccc(S(C)(=O)=O)cc3)cc(OCc3nccn3C)c2[nH]1`: the melting point lay in the range of 91 to 92 °C. In the case of `Cc1ccccc1-c1cnc2c(C(F)(F)F)cccc2c1-c1cccc(NC(=O)Nc2ccccc2F)c1`, the melting point was 218 to 220 °C.

For the molecule `CC(=Cc1ccc(-c2ccc(Cl)cc2)cc1)[N+](=O)[O-]`, the melting point was found to be 114 °C.

As for `CCOC(=O)c1ccc(-c2ccc(OC)c(Br)c2)cc1`, the melting point is 114 to 115 °C.

`CC1CN(c2c(F)cc3c(=O)c(C(=O)O)cn(C)c3c2C(F)(F)F)CCN1c1ncccn1` (centres undefined) showed a melting point of 283 to 284 °C.

The molecule `CC(O)c1cc(Br)ccc1N` (centres undefined) gave a melting point of 95 to 96 °C. Molecule `COc1ccc(-c2ccc(-c3ccc(F)cc3)nc2-c2ccc(OCc3ccccc3)cc2)cc1` returned a melting point of 114 to 115 °C. Consider `NC(Cc1ccc(OCc2ccccc2)cc1)C(=O)Nc1c(F)cc(F)cc1F` (centres undefined), for which the melting point lay within 80.5 to 86.5 °C. `COc1cccc(C2C=C(C)NC3=C2C(=O)CCC3)c1` (centres undefined) returned a melting point of 164 to 167 °C.
